The text below walks through data of ChEMBL document CHEMBL1156536, “Thiocarbamates as non-nucleoside HIV-1 reverse transcriptase inhibitors. Part 2: Parallel synthesis, molecular modelling and structure-activity relationship studies on analogues of O-(2-phenylethyl)-N-phenylthiocarbamate” (Bioorg Med Chem, 2008).

pEC50, pIC50: −log10 of the molar value. Some results are limits rather than exact numbers.

In data set [1] the test system is Human immunodeficiency virus 1. Briefly: Antiviral activity against HIV1 in human MT4 cells assessed as inhibition of virus-induced cytopathogenicity by MTT assay. The class given is functional, organism-based. The note with it: Human immunodeficiency virus 1, MT4. For orientation: Protection from cytopathic effect is a common read-out in antiviral testing.
A short description of data set [2]: Cytotoxicity against mock-infected human MT4 cells by MTT assay. The class given is cell-based. For orientation: Tetrazolium dyes change colour on reduction, which living cells bring about.
Data set [3] in a line: Selectivity index, ratio of CC50 for human MT4 cells to EC50 for HIV1. The class given is toxicity, cell-based. Particulars: read-out: Ratio CC50/EC50.
Data set [4] addresses Human immunodeficiency virus type 1 reverse transcriptase (Human immunodeficiency virus 1, UniProt Q72547). Nature of the data set: Inhibition of HIV1 recombinant wild type reverse transcriptase.
Data set [5] deals with Human immunodeficiency virus 1. Nature of the data set: Reduction of HIV1 p24 antigen level in virus infected C8166 cells. The class given is functional. The note with it: Human immunodeficiency virus 1, C8166.
For data set [6], the system named is Human immunodeficiency virus 1. Briefly: Antiviral activity against HIV1 with reverse transcriptase K103N/Y181C mutation in human MT4 cells assessed as inhibition of virus-induced cytopathogenicity by MTT assay. The class given is functional, organism-based. Particulars: Human immunodeficiency virus 1, MT4.
Data set [7] deals with Human immunodeficiency virus 1. Nature of the data set: Antiviral activity against HIV1 with reverse transcriptase Y181C mutation in human MT4 cells assessed as inhibition of virus-induced cytopathogenicity by MTT assay. The data set is classed as functional, organism-based. Particulars: Human immunodeficiency virus 1, MT4.

The pEC50 is the negative decadic logarithm of the EC50, by convention in mol/L. The CC50 is the concentration at which the toxic effect on the cells reaches its halfway point. A low value points to greater toxicity to the cells. One may read the pIC50 as −log10 of the IC50, conventionally taken in molar units. Usually EC90 stands for the concentration needed for an effect of 90%.

Turning to `Cc1ccc(NC(=S)OC(C)COc2ccccc2)cc1` (racemic), the pEC50 in data set [1] is 5.92. This compound gave a CC50 in data set [2] of 24 µM. In addition, in data set [3], the selectivity ratio was 20. Further, the pIC50 in data set [4] was 5.85.

Consider `CC(COC(=S)Nc1ccc([N+](=O)[O-])cc1)c1ccccc1` (racemic), for which the pEC50 in data set [1] is 6.22. Further, the CC50 in data set [2] is over 100 µM. Also, in data set [3], the selectivity ratio is over 167. In data set [5], this compound returned an EC90 of 600 nM.

Turning to `CC(COc1ccccc1)OC(=S)Nc1ccccc1` (racemic), the pEC50 in data set [1] is 5.70. In data set [2], the CC50 was over 100 µM. For the same compound, the selectivity ratio in data set [3] is over 50. The pIC50 in data set [4] was 6.00.

For `Cc1cccc(CCOC(=S)Nc2ccc([N+](=O)[O-])cc2)c1`, the pEC50 in data set [1] was 6.30; in data set [6] it was 4.16; in data set [7] it was 5.05. Besides, in data set [2], it took 96 µM to reach half-maximal cytotoxicity (CC50). Besides, in data set [3], the selectivity ratio is 192.

In data set [2], `S=C(NCCc1ccccn1)Nc1ccc(Br)cn1` [TROVIRDINE] had a CC50 of 60 µM. Besides, the selectivity ratio in data set [3] is 3000. It took 15 nM to reach the 90% level in data set [5] (EC90).
